Legend:
ovarian cancer cells = experiment: Capturing test with peptide-conjugated magnetic beads, microscopic observation; type: binding; conditions: 10^5 ovarian cancer cells
Procedure: (A) magnetic beads without peptide conjugation; (B) magnetic beads conjugated to 10 μg/mL of peptide; (C) magnetic beads conjugated to 10 ng/mL of peptide; (D) magnetic beads conjugated to 10 ρg/mL of peptide.
Different concentrations of the peptide of the present invention were conjugated to magnetic beads, wherein said concentrations are 10 μg/mL, 10 ng/mL, and 10 ρg/mL. The capturing test was performed using 10^5 ovarian cancer cells.

[1] = system: BG1 ovarian cancer cell line; experiment: Binding activity (connectivity) of peptide-conjugated magnetic beads to cancer cells; design: species or system Human; conditions: 10 ng/mL peptide
Procedure: Human ovarian cancer cell line, BG1, was used. BG1 was cultured in DMEM/F12 medium containing 10% Fetal Bovine Serum (FBS). Other conditions of the culture are 37° C. and 5% CO2 in moisture atmosphere.
(§1) 10 ng/mL of the peptide SEQ ID NO:1 of the present invention was used to examine the binding activity to different cancer cells, including pancreatic cancer cell line (BxPC3), colon cancer cell line (HCT8), cervical cancer cell line (HeLa), and liver cancer cell line (HepG2).

other cancer cells = experiment: Binding activity to other cancer cells (average over non-ovarian lines)
Procedure: as §1

[2] = system: liver cancer cell line (HepG2); experiment: Binding activity (connectivity) of peptide-conjugated magnetic beads to cancer cells; conditions: 10 ng/mL peptide
Procedure: (§2) Other cell lines were used in the embodiments of the present invention including pancreatic cancer cell line (BxPC3), colon cancer cell line (HCT8), cervical cancer cell line (HeLa), and liver cancer cell line (HepG2).
as §1

[3] = system: colon cancer cell line (HCT8); experiment: as above; conditions: 10 ng/mL peptide
Procedure: as §2, §1

[4] = system: cervical cancer cell line (HeLa); experiment: as above; conditions: 10 ng/mL peptide
Procedure: as §2, §1

[5] = system: pancreatic cancer cell line (BxPC3); experiment: as above; conditions: 10 ng/mL peptide
Procedure: as §2, §1

N′-MPHPTKNFDLYV-C′ [peptide of the present invention]
connection to ovarian cancer cells under microscopic observation (ovarian cancer cells; peptide 10 μg/mL, 10 ng/mL and 10 ρg/mL conjugated to magnetic beads): able to connect to ovarian cancer cells
peptide concentration required to efficiently capture ovarian cancer cells (ovarian cancer cells; peptide conjugated to magnetic beads): 10 ρg/mL
Connectivity (%) [1]: about 80%
Connectivity (%) ([1]; listed as peptide): more than 80%
Connectivity (%) ([1]; listed as peptide of present invention): 80.38 ± 2.69%
average connectivity to other cancer cells (other cancer cells; 10 ng/mL peptide, average of non-ovarian cancer cell lines): about 20%
binding activity to other cancers (other cancer cells; pancreatic, colorectal, cervical or liver cancer): negligible binding activity
Connectivity (%) [2]: 15.77 ± 5.25%
Connectivity (%) [3]: 22.37 ± 1.89%
Connectivity (%) [4]: 26.02 ± 2.01%
Connectivity (%) [5]: 12.89 ± 0.21%

Reference: patent US9170261B2, “Peptide specific for ovarian cancer and applications” (National Tsing Hua University, priority 2013, dated 2015)
